The results in this text go back to patent US7276603B2, “Benzofuranyl-and benzothienyl-piperazinyl quinolines and methods of their use” (Wyeth, priority 2003, dated 2007).

Data set [1] addresses 5-HT transporter (Rattus norvegicus, UniProt P31652). The data set is described as follows: Rat Brain 3H-Paroxetine Binding Assay (RB 5HT Transporter). Conditions: rat frontal cortical membranes; 3H-paroxetine 0.1 nM, 60 min, 25° C. From the text: Rat Brain ^3H-Paroxetine Binding Assay (RB 5HT Transporter):
This assay was used to determine a compound's affinity of the 5-HT transporter.
All reactions were terminated by the addition of ice cold Tris buffer followed by rapid filtration using a Tom Tech filtration device to separate bound from free ^3H-paroxetine.

Data set [2] addresses T1, human 5-HT1A receptors (Homo sapiens, UniProt P08908).
T1 construct: expressed in transfected cells; host or cells: CHO cells
T1 sequence (P08908 1-422): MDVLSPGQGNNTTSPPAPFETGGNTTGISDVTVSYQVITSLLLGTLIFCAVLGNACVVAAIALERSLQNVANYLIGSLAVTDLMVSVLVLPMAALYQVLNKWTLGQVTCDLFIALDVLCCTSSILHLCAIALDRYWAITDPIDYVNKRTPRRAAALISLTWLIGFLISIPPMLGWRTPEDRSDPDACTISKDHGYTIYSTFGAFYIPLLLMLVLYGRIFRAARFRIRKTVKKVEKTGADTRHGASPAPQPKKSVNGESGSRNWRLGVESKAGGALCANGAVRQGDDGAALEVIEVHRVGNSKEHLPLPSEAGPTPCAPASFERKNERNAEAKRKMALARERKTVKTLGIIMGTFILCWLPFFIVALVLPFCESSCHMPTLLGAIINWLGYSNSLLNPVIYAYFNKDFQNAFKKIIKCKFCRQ
The data set is described as follows: displacement of [3H] 8-OH-DPAT from the 5-HT1A serotonin receptor. It is filed as binding. Conditions: CHO cells stably transfected with human 5-HT1A receptors.

Sequence of 5-HT transporter (P31652 whole entry): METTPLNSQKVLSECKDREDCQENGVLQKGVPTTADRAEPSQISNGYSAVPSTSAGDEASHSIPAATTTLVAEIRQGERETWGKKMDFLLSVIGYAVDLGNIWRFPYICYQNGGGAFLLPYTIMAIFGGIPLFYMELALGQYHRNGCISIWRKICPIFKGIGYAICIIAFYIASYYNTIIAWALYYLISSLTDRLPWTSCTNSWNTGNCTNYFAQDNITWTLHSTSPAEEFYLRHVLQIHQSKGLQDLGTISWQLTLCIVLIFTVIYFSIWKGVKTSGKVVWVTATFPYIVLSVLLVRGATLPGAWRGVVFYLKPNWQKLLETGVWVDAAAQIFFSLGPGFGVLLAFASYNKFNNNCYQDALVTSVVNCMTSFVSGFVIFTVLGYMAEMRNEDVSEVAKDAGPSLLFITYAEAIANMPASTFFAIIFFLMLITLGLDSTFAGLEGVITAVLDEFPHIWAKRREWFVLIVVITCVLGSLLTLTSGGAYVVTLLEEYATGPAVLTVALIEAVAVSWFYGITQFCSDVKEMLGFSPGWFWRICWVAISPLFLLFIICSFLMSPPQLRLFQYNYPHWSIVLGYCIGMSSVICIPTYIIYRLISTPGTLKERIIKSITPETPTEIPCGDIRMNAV

The melting point is the temperature of the solid-liquid transition. Broadly, the Ki is a measure of affinity in units of concentration, obtained from inhibition or displacement. A higher Ki goes with a looser hold on the target. `Clc1cc(N2CCN([C@H]3CC[C@@H](c4csc5ccccc54)CC3)CC2)c2ncccc2c1` [Compound 41, 8-{4-[4-cis-(1-benzothien-3-yl)cyclohexyl]-1-piperazinyl}-6-chloroquinoline] yielded a melting point of 164 to 165 °C. Besides, in data set [1], the affinity, expressed as Ki, was 65 nM. In data set [2], the affinity corresponds to a Ki of 2.25 nM.

With `Clc1cc(N2CCN([C@H]3CC[C@H](c4csc5ccccc54)CC3)CC2)c2ncccc2c1` [Compound 42, 8-{4-[4-trans(1-benzothien-3-yl)cyclohexyl]-1-piperazinyl}-6-chloroquinoline], the melting point is 143 to 144 °C. This compound also showed a Ki in data set [1] of 157 nM. Further, the affinity in data set [2], expressed as Ki, was 140 nM.

In the case of `Fc1cc(N2CCN([C@H]3CC[C@@H](c4csc5ccccc54)CC3)CC2)c2ncccc2c1` [Compound 43, 8-{4-[4-cis(1-benzothien-3-yl)cyclohexyl]-1-piperazinyl}-6-fluoroquinoline], the melting point was 147 to 151 °C. The Ki in data set [1] was 311 nM. Besides, in data set [2], the Ki is 1.17 nM.

For `Fc1cc(N2CCN([C@H]3CC[C@H](c4csc5ccccc54)CC3)CC2)c2ncccc2c1` [Compound 44, 8-{4-[4-trans(1-benzothien-3-yl)cyclohexyl]-1-piperazinyl}-6-fluoroquinoline], the melting point stood at 195 °C. This compound also came in with an inhibitory constant (Ki) in data set [1] of 380 nM. The compound also came in with a Ki in data set [2] of 130 nM.

For the compound `COc1cc(N2CCN([C@H]3CC[C@@H](c4csc5ccccc54)CC3)CC2)c2ncccc2c1` [Compound 45, 8-{4-[4-cis(1-benzothien-3-yl)cyclohexyl]-1-piperazinyl}-6-methoxyquinoline], the melting point lay within 148 to 150 °C. The compound also showed an inhibition constant (Ki) in data set [1] of 259 nM. For the same compound, the Ki in data set [2] stood at 1.73 nM.

As for `COc1cc(N2CCN([C@H]3CC[C@H](c4csc5ccccc54)CC3)CC2)c2ncccc2c1` [Compound 46, 8-{4-[4-trans (1-benzothien-3-yl)cyclohexyl]-1-piperazinyl}-6-methoxyquinoline], the melting point is 166 to 168 °C. In addition, in data set [1], the Ki is 21 nM. For the same compound, affinity in data set [2] was put at a Ki of 126 nM.

As for `Fc1cc(N2CCN([C@H]3CC[C@H](c4csc5ccc(F)cc54)CC3)CC2)c2ncccc2c1` [Compound 48, 6-fluoro-8-{4-[4-trans(5-fluoro-1-benzothien-3-yl)cyclohexyl]piperazin-1-yl}quinoline], the melting point lay within 143 to 144 °C. The compound also had a Ki in data set [1] of 155 nM. Further, the affinity in data set [2], expressed as Ki, was 0.28 nM.

`Fc1ccc2scc([C@H]3CC[C@@H](N4CCN(c5ccc(Cl)c6cccnc56)CC4)CC3)c2c1` [Compound 51, 5-chloro-8-{4-[4-cis(5-fluoro-1-benzothien-3-yl)cyclohexyl]piperazin-1-yl}quinoline] yielded a melting point of 192 to 197 °C. The same compound gave a Ki in data set [1] of 133 nM. In addition, the Ki in data set [2] turned out to be 4.14 nM.

`Fc1ccc(N2CCN([C@H]3CC[C@@H](c4coc5ccccc54)CC3)CC2)c2ncccc12` [Compound 53, 8-{4-[4-cis(1-benzofuran-3-yl)cyclohexyl]-1-piperazinyl}-5-fluoroquinoline] came in with a melting point of 142 to 144 °C. The compound also came in with a Ki in data set [1] of 208 nM. For the same compound, the Ki in data set [2] turned out to be 1.74 nM.

Turning to `Fc1ccc(N2CCN([C@H]3CC[C@H](c4coc5ccccc54)CC3)CC2)c2ncccc12` [Compound 54, 8-{4-[4-trans(1-benzofuran-3-yl)cyclohexyl]-1-piperazinyl}-5-fluoroquinoline], the melting point was in the range of 162 to 164 °C. The affinity in data set [1], expressed as Ki, was 38 nM. In addition, the affinity in data set [2] corresponds to a Ki of 25.1 nM.

`Fc1cc(N2CCN([C@H]3CC[C@H](c4coc5ccccc54)CC3)CC2)c2ncccc2c1` [Compound 56, 8-{4-[4-trans(1-benzofuran-3-yl)cyclohexyl]-1-piperazinyl}-6-fluoroquinoline] showed a melting point of 195 to 197 °C. In data set [1], this compound showed a Ki of 77 nM. Further, affinity in data set [2] was put at a Ki of 16.6 nM.

`COc1cccc2c1occ2[C@H]1CC[C@@H](N2CCN(c3ccc(F)c4cccnc34)CC2)CC1` [Compound 57, 5-fluoro-8-{4-[4-cis(7-methoxy-1-benzofuran-3-yl)cyclohexyl]-1-piperazinyl}quinoline] displayed a melting point of 143 to 146 °C. In data set [1], this compound displayed a Ki of 163 nM. Moreover, in data set [2], the Ki was determined as 0.4 nM.

In the case of `COc1cccc2c1occ2[C@H]1CC[C@@H](N2CCN(c3cc(F)cc4cccnc34)CC2)CC1` [Compound 59, 6-fluoro-8-{4-[4-cis(7-methoxy-1-benzofuran-3-yl)cyclohexyl]-1-piperazinyl}quinoline], the melting point lay within 75 to 83 °C. The same compound displayed a Ki in data set [1] of 48 nM. This compound also returned a Ki in data set [2] of 1.93 nM.

Compound `COc1cccc2c1occ2[C@H]1CC[C@H](N2CCN(c3cc(F)cc4cccnc34)CC2)CC1` [Compound 60, 6-fluoro-8-{4-[4-trans(7-methoxy-1-benzofuran-3-yl)cyclohexyl]-1-piperazinyl}quinoline] gave a melting point of 195 to 197 °C. This compound gave a Ki in data set [1] of 50 nM. In data set [2], this compound came in with a Ki of 0.16 nM.

`COc1cccc2c1occ2[C@H]1CC[C@@H](N2CCN(c3cccc4cccnc34)CC2)CC1` [Compound 61, 8-{4-[4-cis(7-methoxy-1-benzofuran-3-yl)cyclohexyl]-1-piperazinyl}quinoline] gave a melting point of 66 to 67 °C. The Ki in data set [1] was 27 nM. Further, affinity in data set [2] was put at a Ki of 41.4 nM.

With `COc1cccc2c1occ2[C@H]1CC[C@H](N2CCN(c3cccc4cccnc34)CC2)CC1` [Compound 62, 8-{4-[4-trans(7-methoxy-1-benzofuran-3-yl)cyclohexyl]-1-piperazinyl}quinoline], the melting point is 195 to 197 °C. Moreover, the affinity in data set [1], expressed as Ki, was 46 nM. In data set [2], this compound showed a Ki of 0.26 nM.

For the compound `COc1ccc2occ([C@H]3CC[C@@H](N4CCN(c5cc(F)cc6cccnc56)CC4)CC3)c2c1` [Compound 67, 6-fluoro-8-{4-[4-cis(5-methoxy-1-benzofuran-3-yl)cyclohexyl]piperazin-1-yl}quinoline], the melting point was in the range of 153 to 160 °C. The compound further returned a Ki in data set [1] of 146 nM. Further, affinity in data set [2] was put at a Ki of 14.4 nM.

`COc1ccc2occ([C@H]3CC[C@H](N4CCN(c5cc(F)cc6cccnc56)CC4)CC3)c2c1` [Compound 68, 6-fluoro-8-{4-[4-trans(5-methoxy-1-benzofuran-3-yl)cyclohexyl]piperazin-1-yl}quinoline]: the melting point was 152 to 155 °C. Further, in data set [1], the affinity, expressed as Ki, was 121 nM. Besides, in data set [2], the Ki turned out to be 0.22 nM.

`Fc1cc(N2CCN(C3CCC(c4cc5ccccc5o4)CC3)CC2)c2ncccc2c1` (stereo not drawn) [Compound 69, 8-[4-(4-benzofuran-2-yl-yclohexyl)-piperazin-1-yl]-6-fluoro-quinoline] displayed a melting point of 91 to 93 °C. Further, the Ki in data set [1] was determined as 106 nM. This compound gave a Ki in data set [2] of 16.3 nM.

With `COc1cc(N2CCN([C@H]3CC[C@@H](c4cc5ccccc5s4)CC3)CC2)c2ncccc2c1` [Compound 70], the melting point was 184 to 186 °C. In data set [1], this compound had a Ki of 47 nM. In data set [2], the affinity corresponds to a Ki of 1550 nM.
